Laboratory results published in PubChem BioAssay (NCI).
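Cultured in 96-well plates, cells were exposed to test compound for 48 hours across five concentrations. The concentration for 50% growth inhibition is given as GI50. TGI marks complete inhibition of growth.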

Each compound was assayed on MDA-MB-468 breast (assay: inhibition of tumour cell growth, NCI panel, 48 h).

SMILES | GI50 [µM] | TGI [µM]
C=C(C=O)[C@@H]1CC=C(C=O)CC1 | 2.8 | > 100
COc1cc(-c2nc3cc(Cl)c(Cl)cc3[nH]2)ccc1OCC(=O)N=Nc1c(O)[nH]c2ccccc12 | 0.25 | 0.685
CN(Cc1cccc(Cl)c1)c1ccc(CO)c(Cl)c1 | 0.057 | 0.217
C=CCOc1ccc2c(c1)CC[C@@H]1[C@@H]2CC[C@]2(C)C(=O)/C(=N/O)C[C@@H]12 | 2.18 | 10.6
COc1ccc(-c2nn(C(=O)c3cc(OC)c(OC)c(OC)c3)c3cc(N)ccc23)cc1 | < 0.0141 | 0.19
O=C(Nc1ccc(-n2cc(-c3ccncc3)c(-c3ccc(Cl)c(O)c3)n2)cc1)c1ccc(Cl)c(C(F)(F)F)c1 | 1.84 | 5.68
Cn1cc(C2=C(c3cn(CCCN/C(N)=N\[N+](=O)[O-])c4ccccc34)C(=O)NC2=O)c2ccccc21 | 2.09 | 9.74
O=C1/C=C/[C@@H](O)[C@@H]2C[C@@H](O)C[C@H]2/C=C/CCCCO1 | 0.167 | –
COc1ccc2c(c1)cn1c3ccc(OC)cc3[nH]c(=O)c21 | 0.0635 | 1.04
Clc1ccc2c(NCCCNCc3ccc4c(c3)OCO4)ccnc2c1 | 2.04 | 5.13
Nc1nc(-c2ccccc2Cl)cc(-c2ccc(Cl)cc2Cl)n1 | 2.18 | 8.66
COC(=O)/C=C/c1cc(OC)c2c(c1)[C@@H](C(=O)OC)[C@H](c1ccc(OC)c(OC)c1)O2 | 1.71 | > 100
COc1ccc(/C=N/C2=C(C#N)C(c3ccccc3)c3ccc4ccccc4c3O2)cc1 (stereo unspecified) | 0.454 | –
O=c1c(-c2nc3ccccc3[nH]2)cc2ccccc2n1Cc1cn(Cc2ccc(F)cc2)nn1 | 0.0931 | 2.78
CCOc1ccc(NC2=C(Cl)C(=O)c3nc(C)ccc3C2=O)cc1 | 1.49 | 2.92
COc1ccc(S(=O)(=O)Nc2c(/C=C\c3cc(OC)c(OC)c(OC)c3)ccc(OC)c2O)cc1OC | 0.0755 | 0.441
Nc1c(C(=O)Nc2cccc3ccccc23)sc2nc3c(cc12)CCCCCC3 | 0.675 | 11.6
CCOc1ccc(-n2cc(-c3ccc(N(C)C)cc3)[n+]3c2CCCCC3)cc1 | 0.042 | 2.34
NC(CSC(c1ccccc1)(c1ccccc1)c1ccc(Br)cc1)C(=O)O (stereo unspecified) | 0.116 | > 31.6
Nc1c(S(=O)(=O)O)cc2c(c1Cl)C(=O)c1ccccc1C2=O | > 100 | > 100

SMILES | GI50 [µM] | TGI [µM]
Nc1ncnc2c1c(-c1ccc(Oc3ccccc3)cc1)nn2C[C@H]1SSC[C@H]1O | 0.211 | 0.627
O=C(/C=C/c1ccco1)c1cccc(Nc2nc(Nc3ccccc3)nc(Nc3ccccc3)n2)c1 | 2.8 | 28.9
COc1cc(Cl)c(C)cc1NC(=O)c1cc2ccccc2cc1O | 2.76 | 9.74
O=C1COCCN1c1ccc(NCc2cn(Cc3ccc(F)cc3)c3ccccc23)cc1 | 0.0239 | 0.0783
CCCCCCCCCCCC(=O)[O][Sn]([CH2]CCC)([CH2]CCC)[CH2]CCC | 0.028 | 0.0787
COc1cccc(-c2nn(C)c3sc(C(=O)NCCN4CCN(c5ccccc5F)CC4)cc23)c1 | 7.81 | > 100
Cc1nc(N(C)C)nc(-c2cccc(-c3ccn(CCN(C)C)n3)c2)c1C | 12.1 | > 20
COc1cc(-c2cc(C(=O)N3CCN(C(=O)c4ccccc4NCc4cccs4)CC3)nc3cc(-c4ccccc4)nn23)cc(OC)c1OC | 2.71 | 14
CCCCCCOc1ccc(/C=N/Nc2cc(C)nc3ccc(Br)cc23)cc1 | 1.7 | 3.22
N[C@@H](Cc1ccc(N(CCCl)CCCl)cc1)C(=O)O | 3.84 | 23.7
c1ccc(Oc2cnc3ccccc3n2)cc1 | 46.4 | > 100
CC/C(=C(/c1ccc(Cl)cc1)c1ccc(OCCCN(C)C)cc1)c1ccc(OC)cc1 | 1.06 | 2.26
CCOC(=O)C1=CN(Cc2ccccc2)C2ON=C(c3ccc(Cl)cc3)C2C1 (stereo unspecified) | 15.5 | > 100
OC(c1cc2c(Cl)cc(Cl)cc2c2cc(C(F)(F)F)ccc12)C1CCCCN1 (stereo unspecified) | 1.71 | 3.22
CCc1cc(Cc2cc(CC)cc(C(C)(C)C)c2O)c(O)c(C(C)(C)C)c1 | 3.54 | 13.2
COc1cc(/C=C2\CCCC3=C2N=C2SC=NN2C3c2cc(OC)c(OC)c(OC)c2)cc(OC)c1OC (stereo unspecified) | 2.33 | 7.52
N=C(N)c1ccc(-c2ccc(-c3ccccc3)o2)o1 | 1.64 | 4.19
COc1cc(Nc2nccc(-c3cnn4ncccc34)n2)cc(OC)c1 | 0.0643 | 0.217
O=c1c(Br)ccc(Br)cc1Br | 0.83 | 2.62
